Experiments:
[1] = molecular target: Muscarinic acetylcholine receptor M3 (Cavia porcellus, UniProt Q8VH26); experiment: Antagonist activity at Cavia porcellus (guinea pig) ileum M3 receptor after 30 min; format: tissue-based; settings: read-out: pA2 (converted)
Muscarinic receptor 2 = molecular target: T1, Muscarinic receptor 2 (Cavia porcellus, UniProt Q8VH27); experiment: Antagonist activity at Cavia porcellus (guinea pig) left atria M2 receptor after 2 hr; settings: read-out: pA2 (converted)
T1 sequence (Q8VH27 whole entry): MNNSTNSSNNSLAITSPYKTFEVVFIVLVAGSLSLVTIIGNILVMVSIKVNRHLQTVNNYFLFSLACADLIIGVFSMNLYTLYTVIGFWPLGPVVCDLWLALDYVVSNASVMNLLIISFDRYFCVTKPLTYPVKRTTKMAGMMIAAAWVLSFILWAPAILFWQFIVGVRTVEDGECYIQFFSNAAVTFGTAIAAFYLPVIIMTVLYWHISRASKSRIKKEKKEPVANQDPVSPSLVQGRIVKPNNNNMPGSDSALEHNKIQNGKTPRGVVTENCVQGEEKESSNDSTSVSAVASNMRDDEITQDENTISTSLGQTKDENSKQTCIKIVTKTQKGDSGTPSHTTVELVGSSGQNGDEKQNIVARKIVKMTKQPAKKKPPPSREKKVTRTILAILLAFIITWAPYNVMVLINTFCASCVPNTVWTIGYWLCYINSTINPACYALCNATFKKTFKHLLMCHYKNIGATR

[2] = molecular target: T2, Muscarinic receptor 2 (Cavia porcellus) (UniProt Q8VH27); experiment: Binding affinity to Cavia porcellus (guinea pig) left atria M2 receptor after 2 hr
T2 sequence (whole entry): T1 sequence (Q8VH27 whole entry)

Oryctolagus cuniculus = species: Oryctolagus cuniculus; experiment: Binding affinity to Oryctolagus cuniculus (rabbit) vas deferens M1 receptor after 1 hr
Cavia porcellus = species: Cavia porcellus; experiment: Selectivity ratio of pKb for Cavia porcellus (guinea pig) ileum M3 receptor to pKb for Cavia porcellus (guinea pig) left atria M2 receptor; format: tissue-based; settings: Atrium/Ileum
[3] = Selectivity ratio of pKb for rabbit vas deferens M1 receptor to pKb for guinea pig ileum M3 receptor; format: tissue-based
[4] = Selectivity ratio of pKb for rabbit vas deferens M1 receptor to pKb for guinea pig left atria M2 receptor
[5] = molecular target: Muscarinic acetylcholine receptor M3 (Cavia porcellus) (UniProt Q8VH26); experiment: Binding affinity to Cavia porcellus (guinea pig) ileum M3 receptor after 30 min; format: tissue-based
Muscarinic acetylcholine receptor M3 (Cavia porcellus), sequence (Q8VH26 1-587): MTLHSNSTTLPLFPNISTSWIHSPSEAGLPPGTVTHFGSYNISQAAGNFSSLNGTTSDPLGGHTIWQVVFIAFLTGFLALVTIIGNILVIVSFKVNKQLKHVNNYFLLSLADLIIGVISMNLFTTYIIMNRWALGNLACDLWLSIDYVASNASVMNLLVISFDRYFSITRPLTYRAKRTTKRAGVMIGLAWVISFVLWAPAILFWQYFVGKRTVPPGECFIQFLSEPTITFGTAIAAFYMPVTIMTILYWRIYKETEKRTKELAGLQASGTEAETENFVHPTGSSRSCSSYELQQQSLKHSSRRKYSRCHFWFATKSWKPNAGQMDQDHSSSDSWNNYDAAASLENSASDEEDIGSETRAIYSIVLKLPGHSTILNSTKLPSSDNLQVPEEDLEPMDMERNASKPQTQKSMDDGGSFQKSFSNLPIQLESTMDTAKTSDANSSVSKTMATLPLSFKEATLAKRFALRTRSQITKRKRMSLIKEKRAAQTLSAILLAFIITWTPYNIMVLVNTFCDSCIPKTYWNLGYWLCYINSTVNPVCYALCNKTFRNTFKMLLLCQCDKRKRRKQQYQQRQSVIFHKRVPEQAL

Muscarinic acetylcholine receptor M3, sequence (Q8VH26 whole entry): as the sequence (Q8VH26 1-587) above

Compound | Kb [1] [nM] | Kb (Muscarinic receptor 2) [nM] | pKb [2] | pKb (Oryctolagus cuniculus) | Ratio pKb (Cavia porcellus) | Ratio pKb [3] | Ratio pKb [4] | pKb [5]
CN(C)[C@H]1CO[C@H](C(c2ccccc2)c2ccccc2)OC1 | 372 | 1580 | – | – | – | – | – | –
C[C@@H]1OC(c2ccccc2)(c2ccccc2)O[C@@H]1CN(C)C (relative stereo) | – | – | 6.48 | 6.35 | 0.9 | 0.8 | 0.7 | 6.44
CN(C)CC1COC(c2ccccc2)(c2ccccc2)O1 (centres undefined) | – | – | 7.11 | 7.15 | 0.4 | 3 | 1 | 6.72
CN(C)[C@H]1CO[C@@H](C(c2ccccc2)c2ccccc2)OC1 | 5.37 | 28.2 | – | – | – | – | – | –
C[C@H]1OC(c2ccccc2)(c2ccccc2)O[C@@H]1CN(C)C (relative stereo) | – | – | 6.71 | 6.87 | 1 | 1 | 1 | 6.71
CN(C)C[C@@H]1CO[C@H](C(c2ccccc2)c2ccccc2)O1 | – | – | 6.62 | 7.31 | 0.3 | 17 | 5 | 6.07
CN(C)C[C@@H]1CO[C@@H](C(c2ccccc2)c2ccccc2)O1 | – | – | 6.56 | 6.9 | 1 | 2 | 2 | 6.67

From ChEMBL document CHEMBL3046433, “Synthesis and Antimuscarinic Activity of Derivatives of 2-Substituted-1,3-Dioxolanes” (Med Chem Res, 2005)
